Reference: ChEMBL document CHEMBL4196127, “Discovery of AM-6226: A Potent and Orally Bioavailable GPR40 Full Agonist That Displays Efficacy in Nonhuman Primates” (ACS Med Chem Lett, 2018)

Columns and labels:
[1] = target: T1, Free fatty acid receptor 1 (Homo sapiens, UniProt O14842); test: Agonist activity at GPR40 (unknown origin) expressed in CHO cells incubated for 2 hrs measured over 20 secs in presence of human serum albumin by aequorin based luminescence assay; assay type: functional, cell-based
T1 sequence (O14842 whole entry): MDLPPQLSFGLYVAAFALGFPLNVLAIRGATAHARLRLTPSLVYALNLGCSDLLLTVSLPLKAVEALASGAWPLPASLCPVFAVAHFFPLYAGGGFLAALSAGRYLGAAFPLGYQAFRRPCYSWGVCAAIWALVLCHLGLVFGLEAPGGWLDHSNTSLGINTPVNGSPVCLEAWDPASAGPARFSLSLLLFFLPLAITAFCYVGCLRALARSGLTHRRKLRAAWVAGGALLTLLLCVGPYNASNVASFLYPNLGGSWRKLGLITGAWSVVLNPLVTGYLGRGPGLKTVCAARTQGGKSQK

Canis familiaris = test: Volume of distribution at steady state in dog at […]; assay type: ADME, organism-based, Canis lupus familiaris; conditions: in vivo
[2] = Fraction unbound in dog plasma at 0.5 mg/kg, iv; assay type: ADME, organism-based, Canis lupus familiaris
[3] = Oral bioavailability in cynomolgus monkey at 10 mg/kg; assay type: ADME, organism-based, Macaca fascicularis; conditions: in vivo
[4] = Clearance in cynomolgus monkey at 0.5 mg/kg, iv; conditions: in vivo
[5] = target: T1, Free fatty acid receptor 1; test: Agonist activity at GPR40 (unknown origin) expressed in CHO cells incubated for 2 hrs measured over 20 secs in presence of human serum albumin by aequorin based luminescence assay relative to AM-1638; assay type: functional, cell-based
[6] = (§1) AUC in rat at 2 mg/kg, po; assay type: ADME, organism-based; conditions: in vivo
[7] = Oral bioavailability in dog at 2 mg/kg; assay type: ADME, organism-based, Canis lupus familiaris; conditions: in vivo
[8] = AUC in dog at 2 mg/kg, po; assay type: ADME, organism-based, Canis lupus familiaris; conditions: in vivo
Cynomolgus monkey [9] = test: Antidiabetic activity in prediabetic high fat feed cynomolgus monkey assessed as reduction in plasma glucose AUC at 10 mg/kg, po administered via gavage 2 hrs prior to glucose challenge by oral glucose tolerance test; assay type: functional, Macaca fascicularis; set-up: scale not given: the % may be the effect or the level left
[10] = Half life in rat at 0.5 mg/kg, iv; assay type: ADME, organism-based; conditions: in vivo
Rattus norvegicus [11] = test: Volume of distribution at steady state in rat at 0.5 mg/kg, iv; conditions: in vivo
[12] = AUC in cynomolgus monkey at 10 mg/kg, po; assay type: ADME, organism-based, Macaca fascicularis; conditions: in vivo
[13] = Half life in dog at 0.5 mg/kg, iv; assay type: ADME, organism-based, Canis lupus familiaris; conditions: in vivo
[14] = Fraction unbound in cynomolgus monkey plasma at 0.5 mg/kg, iv; assay type: ADME, organism-based, Macaca fascicularis
[15] = Fraction unbound in rat plasma at 0.5 mg/kg, iv or 2 mg/kg, po; assay type: ADME, organism-based
[16] = Cmax in rat at 2 mg/kg, po; assay type: ADME, organism-based; set-up: dose 2 mg/kg, route oral; conditions: in vivo
[17] = Clearance in rat at 0.5 mg/kg, iv; conditions: in vivo
[18] = Half life in cynomolgus monkey at 0.5 mg/kg, iv; assay type: ADME, organism-based, Macaca fascicularis; conditions: in vivo
[19] = Clearance in dog at 0.5 mg/kg, iv; conditions: in vivo
[20] = Oral bioavailability in rat at 2 mg/kg; assay type: ADME, organism-based; conditions: in vivo
Cynomolgus monkey [21] = test: Volume of distribution at steady state in cynomolgus monkey at […]; assay type: ADME, organism-based, Macaca fascicularis; conditions: in vivo
Rattus norvegicus [22] = test: as §1; assay type: ADME, organism-based; conditions: in vivo
Rattus norvegicus [23] = test: Clearance in rat at 0.5 mg/kg, iv; conditions: in vivo

CC[C@H](CC(=O)O)c1cccc(OCc2ccc(-c3cc(OC)ccc3F)c(C3CCCC3(C)C)c2)c1F (single isomer, unassigned)
EC50 [1]: 120 nM | Vdss (Canis familiaris): 0.68 L/kg | fraction unbound [2]: 0.034 | bioavailability [3]: 91% | clearance [4]: 3.67 mL/min/kg | Efficacy [5]: 104% | AUC [6]: 8.22 µM·h | bioavailability [7]: 62% | AUC [8]: 11.6 µM·h | Activity (Cynomolgus monkey [9]): 18% | half-life [10]: 2 h | Vdss (Rattus norvegicus [11]): 0.81 L/kg | AUC [12]: 80.4 µM·h | half-life [13]: 4.1 h | fraction unbound [14]: 0.017 | fraction unbound [15]: 0.003 | Cmax [16]: 1180 nM | clearance [17]: 5.5 mL/min/kg | half-life [18]: 3.3 h | clearance [19]: 3.5 mL/min/kg | bioavailability [20]: 72% | Vdss (Cynomolgus monkey [21]): 0.5 L/kg

COc1ccc(F)c(-c2ccc(COc3cccc([C@H](C)CC(=O)O)c3)cc2[C@@H]2CCCC2(C)C)c1
EC50 [1]: 170 nM | Efficacy [5]: 106%

COc1ccc(F)c(-c2ccc(COc3cccc([C@@H](CC(=O)O)C4CC4)c3)cc2[C@H]2CCCC2(C)C)c1
EC50 [1]: 310 nM | Efficacy [5]: 100%

N[C@@H](CC(=O)N1CCn2c(nnc2C(F)(F)F)C1)Cc1cc(F)c(F)cc1F [SITAGLIPTIN]
Activity (Cynomolgus monkey [9]): 13%

CC[C@H](CC(=O)O)c1cc(F)cc(OCc2ccc(-c3cc(OC)ccc3F)c([C@@H]3CCCC3(C)C)c2)c1
EC50 [1]: 90 nM | Efficacy [5]: 105%

COc1ccc(F)c(-c2ccc(COc3cccc([C@H](CC(=O)O)C4CC4)c3)cc2[C@@H]2CCCC2(C)C)c1
EC50 [1]: 1830 nM | Efficacy [5]: 89%

CC[C@H](CC(=O)O)c1cccc(OCc2ccc(-c3cc(OC)ccc3F)c([C@@H]3CCCC3(C)C)c2)c1
EC50 [1]: 80 nM | Efficacy [5]: 102% | AUC [6]: 1.74 µM·h | half-life [10]: 2.1 h | Vdss (Rattus norvegicus [11]): 1.12 L/kg | fraction unbound [15]: 0.006 | Cmax [16]: 370 nM | clearance [17]: 11.2 mL/min/kg | bioavailability [20]: 29%

CC[C@H](CC(=O)O)c1cc(OCc2ccc(-c3cc(OC)ccc3F)c([C@@H]3CCCC3(C)C)c2)ccc1F
EC50 [1]: 210 nM | Efficacy [5]: 100%

COc1ccc(F)c(-c2ccc(COc3cccc([C@@H](CC(=O)O)CC4CC4)c3)cc2[C@@H]2CCCC2(C)C)c1
EC50 [1]: 100 nM | Efficacy [5]: 98%

COc1ccc(F)c(-c2ccc(COc3cccc(CCC(=O)O)c3)cc2[C@@H]2CCCC2(C)C)c1
EC50 [1]: 450 nM | Efficacy [5]: 120%

COc1ccc(F)c(-c2ccc(COc3cccc([C@@H](CC(=O)O)C4CC4)c3)cc2[C@@H]2CCCC2(C)C)c1
EC50 [1]: 80 nM | Efficacy [5]: 101% | AUC [6]: 1.83 µM·h | Vdss (Rattus norvegicus [11]): 1.68 L/kg | fraction unbound [15]: 0.006 | Cmax [16]: 250 nM | clearance [17]: 12 mL/min/kg

CC[C@H](CC(=O)O)c1ccc(F)c(OCc2ccc(-c3cc(OC)ccc3F)c(C3=CCCC3(C)C)c2)c1
EC50 [1]: 740 nM | Efficacy [5]: 82%

COc1ccc(F)c(-c2ccc(COc3cccc([C@@H](CC(=O)O)C4CC4)c3)cc2C2CCCC2(C)C)c1 (mixture of isomers)
EC50 [1]: 140 nM | Efficacy [5]: 97%

COc1ccc(F)c(-c2ccc(COc3cccc([C@@H](CC(=O)O)C4CC4)c3F)cc2[C@@H]2CCCC2(C)C)c1
EC50 [1]: 100 nM | Efficacy [5]: 100% | AUC [6]: 2.43 µM·h | half-life [10]: 3.3 h | Vdss (Rattus norvegicus [11]): 1.9 L/kg | fraction unbound [15]: 0.003 | Cmax [16]: 360 nM | clearance [17]: 8.17 mL/min/kg | bioavailability [20]: 32%

COc1ccc(F)c(-c2ccc(COc3cccc([C@@H](CC(=O)O)C4CC4)c3)cc2C2=CCCC2(C)C)c1
bioavailability [3]: 71% | clearance [4]: 13.5 mL/min/kg | Efficacy [5]: 100% | AUC (Rattus norvegicus [22]): 15.1 µM·h | Vdss (Rattus norvegicus [11]): 1.1 L/kg | AUC [12]: 18.8 µM·h | fraction unbound [14]: 0.012 | fraction unbound [15]: 0.01 | CL (Rattus norvegicus [23]): 15.2 mL/min/kg | Vdss (Cynomolgus monkey [21]): 2 L/kg

COc1ccc(F)c(-c2ccc(COc3cccc([C@@H](CC(=O)O)C4CCC4)c3)cc2[C@@H]2CCCC2(C)C)c1
EC50 [1]: 90 nM | Efficacy [5]: 100%

CCC[C@H](CC(=O)O)c1cccc(OCc2ccc(-c3cc(OC)ccc3F)c([C@@H]3CCCC3(C)C)c2)c1
EC50 [1]: 110 nM | Efficacy [5]: 100%

CC[C@@H](CC(=O)O)c1cccc(OCc2ccc(-c3cc(OC)ccc3F)c([C@@H]3CCCC3(C)C)c2)c1
EC50 [1]: 1960 nM | Efficacy [5]: 76%
